Results as given in patent US9157077B2, “Aminopyrimidine kinase inhibitors” (Jasco Pharmaceuticals, LLC, priority 2009, dated 2015).
Like-named read-outs stand apart in the source and are kept apart here.

What was measured:
[1] = target: Enzyme (kinases of Table 29) (Homo sapiens, UniProt P78368); experiment: Percent Activity of Enzyme When Treated with 300 nM of Compound (ATP present at Km of enzyme), Table 29; assay type: biochemical; details: CK1γ2(h)
[2] = tested on: Enzyme (kinases of Table 29); experiment: as above; assay type: biochemical
[3] = target: Enzyme (kinases of Table 30); experiment: IC50 of Compound (nM) (ATP present at Km of enzyme), Table 30; assay type: biochemical; details: ATP present at Km of enzyme
[4] = tested on: PC-3 cells; experiment: Cell proliferation study, inhibition of PC-3 cells (MTS); assay type: cell-based; details: Homo sapiens, 72 hours, read-out: Inhibition Rate %
Experimental: Inhibition of PC-3 Cells:
(§1) • Cells: PC-3 cells, ATCC Passage unknown, Mycoplasma free. • Medium: DMEM Medium (GIBCO Cat#11995073) supplemented with 10% fetal bovine serum (Hyclone Cat#SH30396.03). • Seeding: 3,000 cells/well (100 μL) into 96-well plates, incubated overnight at 37° C. in a humidified 5% CO2 atmosphere. • Treatment: Test compounds were first diluted 333-fold in the medium. Fifty microliters (50 μL) of diluted compounds were added into each well (i.e., another 3-fold dilution). The final concentration of test compounds was 10 μM. The cells were incubated for 72 hours after addition of the test compounds. • MTS: Added 20 μL of MTS solution (Promega Cat #G5430) into each well and incubated for 4 hours. • Calculation: % of inhibition+(AVE zero ctrl−AVE compound)/AVE zero ctrl*100.

[5] = tested on: OVCAR-3 cells; experiment: Cell proliferation study, inhibition of OVCAR-3 cells (MTS); assay type: cell-based; details: Homo sapiens, 72 hours, read-out: Inhibition Rate %
Experimental: Inhibition of OVCAR-3 Cells
as §1, with “OVCAR-3” for “PC-3”, “4,” for “unknown,”, “RPMI-1640” for “DMEM”, “Cat#22400121)” for “Cat#11995073)”, “2,000” for “3,000”

[6] = tested on: LNCaP cells; experiment: Cell proliferation study, inhibition of LNCaP cells (MTS); assay type: cell-based; details: Homo sapiens, 72 hours, read-out: Inhibition Rate %
Experimental: Inhibition of LNCaP Cells
as §1, with “LNCaP,” for “PC-3 cells,”, “RPMI-1640” for “DMEM”, “Cat#22400121)” for “Cat#11995073)”

[7] = tested on: Jurkat cells; experiment: Cell proliferation study, inhibition of Jurkat cells (MTS); assay type: cell-based; details: Homo sapiens, 72 hours, read-out: Inhibition Rate %
Experimental: Inhibition of Jurkat Cells
as §1, with “Jurkat” for “PC-3”, “RPMI-1640” for “DMEM”, “Cat#22400121)” for “Cat#11995073)”, “serum(Hyclone” for “serum (Hyclone”, “5,000” for “3,000”

[8] = tested on: MDA-MB-468 cells; experiment: Cell proliferation study, inhibition of MDA-MB-468 cells (MTS); assay type: cell-based; details: Homo sapiens, 72 hours, read-out: Inhibition Rate %
Experimental: Inhibition of MDA-MB-468 Cells
as §1, with “MDA-MB-468” for “PC-3”, “RPMI-1640” for “DMEM”, “Cat#22400121)” for “Cat#11995073)”, “2,000” for “3,000”

[9] = tested on: HCT116 cells; experiment: Cell proliferation study, inhibition of HCT116 cells (MTS); assay type: cell-based; details: Homo sapiens, 72 hours, read-out: Inhibition Rate %
Experimental: Inhibition of HCT116 Cells
as §1, with “• Cells: HCT116 cells, ATCC” for “• Cells: PC-3 cells, ATCC”, “• Seeding: 750 cells/well (100” for “• Seeding: 3,000 cells/well (100”, “hours. • Measurement: Absorbance at 490 nm using MD Spectramax Plus 384 spectrophotometer. • Calculation: %” for “hours. • Calculation: %”

[10] = target: Enzyme (kinases of Table 30) (Homo sapiens, UniProt P11309); experiment: IC50 of Compound (nM) (ATP present at Km of enzyme), Table 30; assay type: biochemical; details: Pim-1(h), ATP present at Km of enzyme; read-out: IC50 of Compound, Pim-1(h)
Enzyme (kinases of Table 30) (Homo sapiens, UniProt P11309), sequence (P11309 whole entry): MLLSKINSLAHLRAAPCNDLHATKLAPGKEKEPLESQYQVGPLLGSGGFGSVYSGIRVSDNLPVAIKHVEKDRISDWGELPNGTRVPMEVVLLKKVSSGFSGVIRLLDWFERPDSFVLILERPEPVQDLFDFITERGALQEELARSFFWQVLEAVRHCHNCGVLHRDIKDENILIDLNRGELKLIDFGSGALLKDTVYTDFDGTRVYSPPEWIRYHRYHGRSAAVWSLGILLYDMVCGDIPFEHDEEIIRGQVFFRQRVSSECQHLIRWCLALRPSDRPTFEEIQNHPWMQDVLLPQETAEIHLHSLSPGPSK

[11] = target: T1, Enzyme (kinases of Table 30) (Homo sapiens, UniProt P68400); experiment: as above; assay type: biochemical; details: CK2(h), ATP present at Km of enzyme
T1 construct: IC50 of Compound, CK2(h); other: CK2(h), ATP present at Km of enzyme
T1 sequence (P68400 whole entry): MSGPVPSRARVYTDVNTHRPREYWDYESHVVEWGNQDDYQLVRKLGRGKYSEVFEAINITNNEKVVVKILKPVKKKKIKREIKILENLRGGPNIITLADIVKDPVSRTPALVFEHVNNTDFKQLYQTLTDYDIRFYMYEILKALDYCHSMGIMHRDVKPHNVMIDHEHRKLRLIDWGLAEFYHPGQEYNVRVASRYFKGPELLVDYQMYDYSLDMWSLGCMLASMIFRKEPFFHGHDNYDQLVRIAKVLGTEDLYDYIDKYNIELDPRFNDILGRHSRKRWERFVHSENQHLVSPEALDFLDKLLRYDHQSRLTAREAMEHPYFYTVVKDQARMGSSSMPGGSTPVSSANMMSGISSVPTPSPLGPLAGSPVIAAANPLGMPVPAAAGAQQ

[12] = target: T2, Enzyme (kinases of Table 30) (Homo sapiens, UniProt P78368); experiment: as above; assay type: biochemical; details: CK1γ2(h), ATP present at Km of enzyme
T2 construct: IC50 of Compound, CK1γ2(h); other: CK1γ2(h), ATP present at Km of enzyme
T2 sequence (P78368 whole entry): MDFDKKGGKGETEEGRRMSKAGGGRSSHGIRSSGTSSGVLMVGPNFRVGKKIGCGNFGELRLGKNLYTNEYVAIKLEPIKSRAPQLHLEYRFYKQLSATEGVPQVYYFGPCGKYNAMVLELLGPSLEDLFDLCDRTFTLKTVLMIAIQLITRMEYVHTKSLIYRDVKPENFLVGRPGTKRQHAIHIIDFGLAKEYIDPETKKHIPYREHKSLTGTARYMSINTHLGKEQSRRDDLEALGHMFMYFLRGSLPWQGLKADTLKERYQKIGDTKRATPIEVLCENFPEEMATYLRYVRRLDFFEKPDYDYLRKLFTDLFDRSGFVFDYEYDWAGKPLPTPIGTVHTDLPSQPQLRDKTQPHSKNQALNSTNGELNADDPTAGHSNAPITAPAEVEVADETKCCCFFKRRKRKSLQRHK

[13] = target: Enzyme (kinases of Table 30) (Homo sapiens, UniProt Q86V86); experiment: as above; assay type: biochemical; details: Pim-3(h), ATP present at Km of enzyme; read-out: IC50 of Compound, Pim-3(h)
[14] = target: Enzyme (kinases of Table 30) (Homo sapiens, UniProt Q9P1W9); experiment: as above; assay type: biochemical; details: Pim-2(h), ATP present at Km of enzyme; read-out: IC50 of Compound, Pim-2(h)
Enzyme (kinases of Table 30) (Homo sapiens, UniProt Q9P1W9), sequence (Q9P1W9 whole entry): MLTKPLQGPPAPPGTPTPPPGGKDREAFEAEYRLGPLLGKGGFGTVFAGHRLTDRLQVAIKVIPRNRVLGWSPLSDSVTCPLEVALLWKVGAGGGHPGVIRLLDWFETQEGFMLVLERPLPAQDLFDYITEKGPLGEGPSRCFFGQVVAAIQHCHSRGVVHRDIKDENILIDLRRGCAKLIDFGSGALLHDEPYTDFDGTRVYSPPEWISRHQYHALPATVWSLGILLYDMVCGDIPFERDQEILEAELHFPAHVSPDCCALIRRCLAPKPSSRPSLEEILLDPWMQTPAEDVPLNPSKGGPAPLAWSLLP

[15] = Hepatic microsomal stability, rat; assay type: in vitro ADME, rat (Sprague-Dawley)
Experimental: (§2) Hepatic microsomal assays were performed with 4981, 4985, 4991 and 4999 in human and rat (Sprague-Dawley). Protein concentrations of 0.4 (human) and 0.2 mg/mL (rat) with an NADPH regenerating cofactor system (2.6 mM NADP+, 6.6 mM glucose-6-phosphate, 0.8 U/mL glucose-6-phosphate dehydrogenase, and 6.6 mM magnesium chloride) were used. A 100 μM 20% DMSO/80% acetonitrile working stock of each of the compounds was diluted 100 fold resulting in 1 μM compound/1% final organic reaction concentrations. Time points were removed at 0 and 60 minutes. At each time point, 100 μL of the incubation suspension was added to 200 μL of acetonitrile containing internal standard (tolbutamide), followed by centrifugation at 3,220 rcf for 10 minutes. Two hundred (200)μL of the resulting supernatants were removed, dried under nitrogen and reconstituted in 100 μL of 2 mM ammonium acetate, 0.1% formic acid in 50% methanol prior to analysis by LC/MS/MS. Testosterone and dexamethasone were used as reference compounds.

[16] = Hepatic microsomal stability, human; assay type: in vitro ADME
Experimental: as §2

[17] = PAMPA, 5 h, 10 μM, pH 7.4
Experimental: The target concentration in the assay was 10 μM, prepared by diluting (1000-fold) the 10 mM stock solutions in DMSO into PBS, pH 7.4. The final DMSO concentration was 0.1%. The 10 μM solutions were added, 300 μL, to wells in the donor plate. The receiver plate, which contained 200 μL of PBS, pH 7.4 per well, was placed in the donor plate and the assembly was incubated for 5 hours at ambient temperature. At the end of the incubation period the plates were separated and the compound concentrations in each solution were determined by LC/MS/MS. The assay was performed in triplicate.
Where: • C0 is the initial concentration in the donor well (μM) • CD(t) is the concentration in the donor well after incubation (μM) • CA(t) is the concentration in the acceptor well after incubation (μM) • VD is the volume in the donor well (0.3 mL) • VA is the volume in the acceptor well (0.2 mL) • CE is (CD(t)VD+CA(t)VA)/(VD+VA) • A is the filter area (0.3 cm2) • t is the incubation time (18,000 s).

Enzyme (kinases of Table 29) (Homo sapiens, UniProt P78368), sequence (P78368 whole entry): as the sequence (P78368 whole entry) above

With CN(C)CCOc1cc(/C=C2\SC(=O)NC2=O)nc(N2CCN(S(=O)(=O)c3ccccc3)CC2)n1 [compound 214, (Z)-5-((6-(2-(dimethylamino)ethoxy)-2-(4-(phenylsulfonyl)piperazin-1-yl)pyrimidin-4-yl)methylene)thiazolidine-2,4-dione] the “Percent Activity of Enzyme, CK1γ2(h)” value [1] was 41%, the “Percent Activity of Enzyme, CK1(y)” value ([2]; CK1(y)) was 79% and the “Percent Activity of Enzyme, CK2(h)” value ([2]; CK2(h)) was 77%. The “Percent Activity of Enzyme, Pim-1(h)” value ([2]; Pim-1(h)) was 25%, the “Percent Activity of Enzyme, Pim-2(h)” value ([2]; Pim-2(h)) was 13% and the “Percent Activity of Enzyme, Pim-3(h)” value ([2]; Pim-3(h)) was 16%. It also gave an IC50 ([3]; Pim-1(h), read-out: IC50 of Compound, Pim-1(h)) of 95 nM, an IC50 ([3]; Pim-2(h), read-out: IC50 of Compound, Pim-2(h)) of 35 nM and an IC50 ([3]; Pim-3(h), read-out: IC50 of Compound, Pim-3(h)) of 60 nM.

For Nc1ccn([C@@H]2O[C@H](CO)[C@@H](O)C2(F)F)c(=O)n1 [Gemcitabine, gemcitabine], the inhibition at 1.2 µM ([4]; positive control 1.2 μM) was 6.5%, the inhibition at 3.7 µM ([4]; positive control 3.7 μM) was 6.7% and the inhibition at 11.1 µM ([4]; positive control 11.1 μM) was 20.9%. The inhibition at 33.3 µM ([4]; positive control 33.3 μM) was 47.4%, the inhibition at 100 µM ([4]; positive control 100 μM) was 55.7% and the inhibition at 300 µM ([4]; positive control 300 μM) was 79.5%. It also gave an inhibition at 1.2 µM ([5]; positive control 1.2 μM) of 18.2%, an inhibition at 3.7 µM ([5]; positive control 3.7 μM) of 25% and an inhibition at 11.1 µM ([5]; positive control 11.1 μM) of 31.5%. For the same molecule, the inhibition at 33.3 µM ([5]; positive control 33.3 μM) was 40.8%, the inhibition at 100 µM ([5]; positive control 100 μM) was 85.1% and the inhibition at 300 µM ([5]; positive control 300 μM) was 87%. For the same molecule, the inhibition at 1.2 µM ([6]; positive control 1.2 μM) was 14.5%, the inhibition at 3.7 µM ([6]; positive control 3.7 μM) was 60.9% and the inhibition at 11.1 µM ([6]; positive control 11.1 μM) was 90.2%. The inhibition at 33.3 µM ([6]; positive control 33.3 μM) was 92.9%, the inhibition at 100 µM ([6]; positive control 100 μM) was 90.7% and the inhibition at 300 µM ([6]; positive control 300 μM) was 90.1%. For the same molecule, the inhibition at 1.2 µM ([7]; positive control 1.2 μM) was 17.4%, the inhibition at 3.7 µM ([7]; positive control 3.7 μM) was 63.9% and the inhibition at 11.1 µM ([7]; positive control 11.1 μM) was 84.7%. The inhibition at 33.3 µM ([7]; positive control 33.3 μM) was 105%, the inhibition at 100 µM ([7]; positive control 100 μM) was 106% and the inhibition at 300 µM ([7]; positive control 300 μM) was 104%. For the same molecule, the inhibition at 1.2 µM ([8]; positive control 1.2 μM) was 16.4%, the inhibition at 3.7 µM ([8]; positive control 3.7 μM) was 31.2% and the inhibition at 11.1 µM ([8]; positive control 11.1 μM) was 80.7%. The inhibition at 33.3 µM ([8]; positive control 33.3 μM) was 91.7%, the inhibition at 100 µM ([8]; positive control 100 μM) was 88.8% and the inhibition at 300 µM ([8]; positive control 300 μM) was 94.9%. It also gave an inhibition at 1.2 µM ([9]; HCT-116, positive control 1.2 μM) of 50.1%, an inhibition at 3.7 µM ([9]; HCT-116, positive control 3.7 μM) of 79.3% and an inhibition at 11.1 µM ([9]; HCT-116, positive control 11.1 μM) of 85.6%. For the same molecule, the inhibition at 33.3 µM ([9]; HCT-116, positive control 33.3 μM) was 85.6%, the inhibition at 100 µM ([9]; HCT-116, positive control 100 μM) was 85.4% and the inhibition at 300 µM ([9]; HCT-116, positive control 300 μM) was 87.6%.

In the case of COc1cccc2ccc(CNCC3CCN(c4nccc(/C=C5\SC(=O)NC5=O)n4)CC3)nc12 [compound 189], the IC50 [10] is reported as 4 nM, the IC50 [11] is reported as 364 nM and the IC50 [12] is reported as 164 nM. It also gave an IC50 [13] of 4 nM and an IC50 [14] of 9 nM.

With C[C@@H]1C[C@H]2[C@@H]3CCC4=CC(=O)C=C[C@]4(C)[C@@]3(F)[C@@H](O)C[C@]2(C)[C@@]1(O)C(=O)CO [Dexamethasone] the “% remaining after incubation, Rat Microsomes” value ([15]; Sprague-Dawley, rat, microsomes, 1 h, 1 μM) was 91%, the “% remaining after incubation, Human Microsomes” value ([16]; human, microsomes, 1 h, 1 μM) was 85% and the “Mass Retention R” value [17] was 9%.

Work on O=C1NC(=O)/C(=C/c2ccnc(N3CCC(c4nc(-c5ccncc5)no4)CC3)n2)S1 [compound 86] yielded an IC50 [12] of 86 nM.

Work on Nc1cccc2c1CCN(c1nccc(/C=C3\SC(=O)NC3=O)n1)C2 [compound 120] yielded an IC50 [10] of 170 nM, an IC50 [11] of 214 nM and an IC50 [12] of 676 nM. It also gave an IC50 [13] of 271 nM and an IC50 [14] of 225 nM.

In the case of C[C@]12CC[C@H]3[C@@H](CCC4=CC(=O)CC[C@@]43C)[C@@H]1CC[C@@H]2O [Testosterone], the “% remaining after incubation, Rat Microsomes” value ([15]; 1 μM compound, 0.2 mg/mL protein, NADPH regenerating system, 60 minutes) is reported as 0.6% and the “% remaining after incubation, Human Microsomes” value ([16]; 1 μM compound, 0.4 mg/mL protein, NADPH regenerating system, 60 minutes) is reported as 42%.

In the case of O=C1NC(=O)/C(=C/c2ccnc(N3CCC(c4c[nH]c5ccccc45)CC3)n2)S1 [compound 94], the IC50 [12] is reported as 38 nM.
